This note sets out measurements from patent publication US20260345623A1, “NOVEL […] HETEROCYCLIC CARBALDEHYDE COMPOUND AND PHARMACEUTICAL COMPOSITION, CONTAINING SAME, FOR IRE1alpha INHIBITION” (HANMI PHARM. CO., LTD., priority 2022, published 2026).

The structures appear in SMILES notation.

For one experiment, the target named is T1, spliced XBP1 mRNA (target of IRE endonuclease) in MCF-7 cancer cells (Homo sapiens, UniProt O75460).
T1 construct: tunicamycin ER stress; RT-PCR of spliced XBP1 mRNA (RNase domain activity)
T1 sequence (O75460 19-977): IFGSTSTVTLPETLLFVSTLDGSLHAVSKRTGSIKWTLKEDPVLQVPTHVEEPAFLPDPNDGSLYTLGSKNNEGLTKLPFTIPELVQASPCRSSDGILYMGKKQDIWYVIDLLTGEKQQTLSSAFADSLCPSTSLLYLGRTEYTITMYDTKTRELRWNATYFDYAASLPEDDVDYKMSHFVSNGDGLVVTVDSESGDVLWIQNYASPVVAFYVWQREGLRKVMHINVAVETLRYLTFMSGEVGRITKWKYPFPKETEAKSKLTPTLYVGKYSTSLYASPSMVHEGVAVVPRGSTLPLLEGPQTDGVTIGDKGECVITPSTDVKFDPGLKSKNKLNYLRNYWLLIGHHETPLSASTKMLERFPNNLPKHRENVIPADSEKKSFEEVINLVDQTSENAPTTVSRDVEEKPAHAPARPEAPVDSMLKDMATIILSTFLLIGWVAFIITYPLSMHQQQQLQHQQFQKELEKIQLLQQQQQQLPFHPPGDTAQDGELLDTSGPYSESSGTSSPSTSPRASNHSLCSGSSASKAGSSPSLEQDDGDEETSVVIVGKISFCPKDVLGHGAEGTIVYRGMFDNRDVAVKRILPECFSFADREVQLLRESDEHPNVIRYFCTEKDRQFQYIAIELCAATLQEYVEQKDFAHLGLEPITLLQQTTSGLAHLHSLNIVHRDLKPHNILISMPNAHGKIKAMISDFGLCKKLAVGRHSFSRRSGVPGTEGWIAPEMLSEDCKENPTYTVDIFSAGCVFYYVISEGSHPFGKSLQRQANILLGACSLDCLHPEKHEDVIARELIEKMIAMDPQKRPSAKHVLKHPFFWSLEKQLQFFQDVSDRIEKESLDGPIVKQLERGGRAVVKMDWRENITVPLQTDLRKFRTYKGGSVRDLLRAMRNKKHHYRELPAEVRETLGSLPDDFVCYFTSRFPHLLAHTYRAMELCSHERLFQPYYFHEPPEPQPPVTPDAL
Description: Spliced XBP1 mRNA Measurement Test (RT-PCR, tunicamycin-induced ER stress, MCF-7 cells). It is filed as cell-based. The note with it: 1 hour pre-treatment with compound, 2 μg/mL tunicamycin 6 or 24 hours, spliced XBP1 corrected by total XBP1, read-out: XBP1 mRNA (IC50). The method, then:
A reverse transcription polymerase chain reaction is a test method in which RNA is extracted from cells, reverse transcriptase is used to make cDNA, and relative mRNA expression level is measured through a polymerase chain reaction.
Briefly, MCF-7 cells were seeded in a 12-well plate and cultured in an incubator including 5% CO2 for one day. On the next day, compounds, which were 10-fold serially diluted from 10,000 nM, were pre-treated for 1 hour, and then, treated with 2 μg/mL tunicamycin for 6 or 24 hours to induce endoplasmic reticulum stress, followed by cell lysis to obtain RNA. RNA was subjected to the procedure of RNeasy Kits (Qiagen, 74106), and 5 μg of RNA sample was dissolved in a sample including reverse transcriptase and dNTP, and reverse transcription reaction was performed with a thermal cycler. The amount of mRNA of each of spliced XBP1 and total XBP1 was measured by a polymerase chain reaction through real time PCR by mixing each cDNA sample with a PCR reaction mixture including a primer pair capable of binding specifically to each target and SYBR green dye. The expression level of spliced XBP1 was corrected by the total expression level of XBP1, and the relative expression levels of spliced XBP1 between samples were compared and analyzed.
`Cc1c(CC(=O)N2CCOCC2)c(=O)oc2c(C=O)c(O)c3c(c12)CCO3` [Example 1, 4-hydroxy-9-methyl-8-(2-morpholino-2-oxoethyl)-7-oxo-1,7-dihydro-2H-furo[3,2-f]chromene-5-carbaldehyde]: the IC50 was below 100 nM.
In the case of `Cc1c(CC(=O)N2CCOCC2)c(=O)oc2c(C=O)c(O)c3c(c12)OCO3` [Example 2, 4-hydroxy-9-methyl-8-(2-morpholino-2-oxoethyl)-7-oxo-7H-[1,3]dioxolo[4,5-f]chromene-5-carbaldehyde], the IC50 was in the range of 100 to 200 nM.
The same measure, in the same setting: the result for `Cc1c(CC(=O)N2CCOCC2)c(=O)oc2c(C=O)c(O)c3c(c12)CCCO3` [Example 3, 6-hydroxy-1-methyl-2-(2-morpholino-2-oxoethyl)-3-oxo-3,8,9,10-tetrahydropyrano[3,2-f]chromene-5-carbaldehyde] reads below 100 nM; that for `Cc1c(CC(=O)N2CCC(C)CC2)c(=O)oc2c(C=O)c(O)c3c(c12)CCCO3` [Example 4, 6-hydroxy-1-methyl-2-(2-(4-methylpiperidin-1-yl)-2-oxoethyl)-3-oxo-3,8,9,10-tetrahydropyrano[3,2-f]chromene-5-carbaldehyde], above 200 nM.
Still for that read-out and setting: the result for `Cc1c(CC(=O)N2CCCC2)c(=O)oc2c(C=O)c(O)c3c(c12)CCCO3` [Example 5, 6-hydroxy-1-methyl-3-oxo-2-(2-oxo-2-(pyrrolidin-1-yl)ethyl)-3,8,9,10-tetrahydropyrano[3,2-f]chromene-5-carbaldehyde] reads below 100 nM; that for `CCNC(=O)Cc1c(C)c2c3c(c(O)c(C=O)c2oc1=O)OCC3` [Example 8, N-ethyl-2-(5-formyl-4-hydroxy-9-methyl-7-oxo-1,7-dihydro-2H-furo[3,2-f]chromen-8-yl)acetamide], below 100 nM.
Regarding `CCN(CC)C(=O)Cc1c(C)c2c3c(c(O)c(C=O)c2oc1=O)OCC3` [Example 9, N,N-diethyl-2-(5-formyl-4-hydroxy-9-methyl-7-oxo-1,7-dihydro-2H-furo[3,2-f]chromen-8-yl)acetamide], the IC50 was below 100 nM.
Turning to `Cc1c(CC(=O)N2CCC(F)(F)C2)c(=O)oc2c(C=O)c(O)c3c(c12)CCCO3` [Example 10, 2-(2-(3,3-difluoropyrrolidin-1-yl)-2-oxoethyl)-6-hydroxy-1-methyl-3-oxo-3,8,9,10-tetrahydropyrano[3,2-f]chromene-5-carbaldehyde], the IC50 is below 100 nM.
Still for that read-out and setting: the result for `Cc1c(CC(=O)N2CCC(C)C2)c(=O)oc2c(C=O)c(O)c3c(c12)CCCO3` (centres unmarked) [Example 11, 6-hydroxy-1-methyl-2-(2-(3-methylpyrrolidin-1-yl)-2-oxoethyl)-3-oxo-3,8,9,10-tetrahydropyrano[3,2-f]chromene-5-carbaldehyde] reads below 100 nM; that for `Cc1c(CC(=O)N2CCC(C)(C)C2)c(=O)oc2c(C=O)c(O)c3c(c12)CCCO3` [Example 12, 2-(2-(3,3-dimethylpyrrolidin-1-yl)-2-oxoethyl)-6-hydroxy-1-methyl-3-oxo-3,8,9,10-tetrahydropyrano[3,2-f]chromene-5-carbaldehyde], 100 to 200 nM; that for `Cc1c(CC(=O)N2CCC2)c(=O)oc2c(C=O)c(O)c3c(c12)CCCO3` [Example 13, 2-(2-(azetidin-1-yl)-2-oxoethyl)-6-hydroxy-1-methyl-3-oxo-3,8,9,10-tetrahydropyrano[3,2-f]chromene-5-carbaldehyde], 100 to 200 nM.
For `COC1CCN(C(=O)Cc2c(C)c3c4c(c(O)c(C=O)c3oc2=O)OCCC4)C1` (centres unmarked) [Example 14, 6-hydroxy-2-(2-(3-methoxypyrrolidin-1-yl)-2-oxoethyl)-1-methyl-3-oxo-3,8,9,10-tetrahydropyrano[3,2-f]chromene-5-carbaldehyde], the IC50 was in the range of 100 to 200 nM.
On the same count and under the same terms, the result for `COC1CN(C(=O)Cc2c(C)c3c4c(c(O)c(C=O)c3oc2=O)OCCC4)C1` [Example 15, 6-hydroxy-2-(2-(3-methoxyazetidin-1-yl)-2-oxoethyl)-1-methyl-3-oxo-3,8,9,10-tetrahydropyrano[3,2-f]chromene-5-carbaldehyde] reads 100 to 200 nM; that for `Cc1c(CC(=O)N2CCC(F)C2)c(=O)oc2c(C=O)c(O)c3c(c12)CCCO3` (centres unmarked) [Example 16, 2-(2-(3-fluoropyrrolidin-1-yl)-2-oxoethyl)-6-hydroxy-1-methyl-3-oxo-3,8,9,10-tetrahydropyrano[3,2-f]chromene-5-carbaldehyde], above 200 nM.
Still for that read-out and setting: the result for `CCNC(=O)Cc1c(C)c2c3c(c(O)c(C=O)c2oc1=O)OCCC3` [Example 17, N-ethyl-2-(5-formyl-6-hydroxy-1-methyl-3-oxo-3,8,9,10-tetrahydropyrano[3,2-f]chromen-2-yl)acetamide] reads below 100 nM.
As to `CCc1c(CC(=O)N2CCCC2)c(=O)oc2c(C=O)c(O)c3c(c12)CCCO3` [Example 18, 1-ethyl-6-hydroxy-3-oxo-2-(2-oxo-2-(pyrrolidin-1-yl)ethyl)-3,8,9,10-tetrahydropyrano[3,2-f]chromene-5-carbaldehyde], the IC50 was above 200 nM.
Same read-out and setting: the result for `Cc1c(CC(=O)N2CC(F)C2)c(=O)oc2c(C=O)c(O)c3c(c12)CCCO3` [Example 19, 2-(2-(3-fluoroazetidin-1-yl)-2-oxoethyl)-6-hydroxy-1-methyl-3-oxo-3,8,9,10-tetrahydropyrano[3,2-f]chromene-5-carbaldehyde] reads 100 to 200 nM; that for `Cc1c(CC(=O)N2CCC3(CC3)C2)c(=O)oc2c(C=O)c(O)c3c(c12)CCCO3` [Example 20, 6-hydroxy-1-methyl-3-oxo-2-(2-oxo-2-(5-azaspiro[2.4]heptan-5-yl)ethyl)-3,8,9,10-tetrahydropyrano[3,2-f]chromene-5-carbaldehyde], 100 to 200 nM; that for `Cc1c(CC(=O)N2CCCCC2)c(=O)oc2c(C=O)c(O)c3c(c12)CCCO3` [Example 21, 6-hydroxy-1-methyl-3-oxo-2-(2-oxo-2-(piperidin-1-yl)ethyl)-3,8,9,10-tetrahydropyrano[3,2-f]chromene-5-carbaldehyde], above 200 nM.
Still for that read-out and setting: the result for `Cc1c(CC(N)=O)c(=O)oc2c(C=O)c(O)c3c(c12)CCCO3` [Example 22, 2-(5-formyl-6-hydroxy-1-methyl-3-oxo-3,8,9,10-tetrahydropyrano[3,2-f]chromen-2-yl)acetamide] reads above 200 nM; that for `CC(C)c1c(CC(=O)N2CCCC2)c(=O)oc2c(C=O)c(O)c3c(c12)CCCO3` [Example 23, 6-hydroxy-1-isopropyl-3-oxo-2-(2-oxo-2-(pyrrolidin-1-yl)ethyl)-3,8,9,10-tetrahydropyrano[3,2-f]chromene-5-carbaldehyde], 100 to 200 nM; that for `COCCNC(=O)Cc1c(C)c2c3c(c(O)c(C=O)c2oc1=O)OCCC3` [Example 24, 2-(5-formyl-6-hydroxy-1-methyl-3-oxo-3,8,9,10-tetrahydropyrano[3,2-f]chromen-2-yl)-N-(2-methoxyethyl)acetamide], below 100 nM.
On the same count and under the same terms, the result for `CCN(CC)C(=O)Cc1c(C)c2c3c(c(O)c(C=O)c2oc1=O)OCCC3` [Example 25, N,N-diethyl-2-(5-formyl-6-hydroxy-1-methyl-3-oxo-3,8,9,10-tetrahydropyrano[3,2-f]chromen-2-yl)acetamide] reads below 100 nM.
Regarding `CC(=O)N1CCN(C(=O)Cc2c(C)c3c4c(c(O)c(C=O)c3oc2=O)OCCC4)CC1` [Example 26, 2-(2-(4-acetylpiperazin-1-yl)-2-oxoethyl)-6-hydroxy-1-methyl-3-oxo-3,8,9,10-tetrahydropyrano[3,2-f]chromene-5-carbaldehyde], the IC50 is above 200 nM.
As for `Cc1c(CC(=O)N2CC3CC2CO3)c(=O)oc2c(C=O)c(O)c3c(c12)CCCO3` (centres unmarked) [Example 27, 2-(2-(2-oxa-5-azabicyclo[2.2.1]heptan-5-yl)-2-oxoethyl)-6-hydroxy-1-methyl-3-oxo-3,8,9,10-tetrahydropyrano[3,2-f]chromene-5-carbaldehyde], the IC50 was below 100 nM.
Regarding `Cc1c(CC(=O)N2CCSCC2)c(=O)oc2c(C=O)c(O)c3c(c12)CCCO3` [Example 28, 6-hydroxy-1-methyl-3-oxo-2-(2-oxo-2-thiomorpholinoethyl)-3,8,9,10-tetrahydropyrano[3,2-f]chromene-5-carbaldehyde], the IC50 is 100 to 200 nM.
The same measure, in the same setting: the result for `Cc1c(CC(=O)NCCN2CCOCC2)c(=O)oc2c(C=O)c(O)c3c(c12)CCCO3` [Example 29, 2-(5-formyl-6-hydroxy-1-methyl-3-oxo-3,8,9,10-tetrahydropyrano[3,2-f]chromen-2-yl)-N-(2-morpholinoethyl)acetamide] reads above 200 nM.

The experiment is the same for the next values; noted with them: read-out: XBP1 mRNA (IC50), 1 hour pre-treatment with compound, 2 μg/mL tunicamycin 6 or 24 hours, spliced XBP1 corrected by total XBP1.
As to `Cc1c(CC(=O)N2CCN(C)CC2)c(=O)oc2c(C=O)c(O)c3c(c12)CCCO3` [Example 6, 6-hydroxy-1-methyl-2-(2-(4-methylpiperazin-1-yl)-2-oxoethyl)-3-oxo-3,8,9,10-tetrahydropyrano[3,2-f]chromene-5-carbaldehyde], the IC50 was below 100 nM.
Same read-out and setting: the result for `Cc1c(CC(=O)N2CCN(C(C)C)CC2)c(=O)oc2c(C=O)c(O)c3c(c12)CCCO3` [Example 7, 6-hydroxy-2-(2-(4-isopropylpiperazin-1-yl)-2-oxoethyl)-1-methyl-3-oxo-3,8,9,10-tetrahydropyrano[3,2-f]chromene-5-carbaldehyde] reads 100 to 200 nM.
